Measurements from patent publication US7517874B2 (priority 2007, dated 2009).
Like-named read-outs stand apart in the source and are kept apart here.

What was measured:
[1] = target: human CB1 receptor (hCB1) (Homo sapiens, UniProt P21554); experiment: cell-based; assay type: cell-based; conditions: for +/− HCB1: agonist or inverse agonist at hCB1
Summary of the method: (§1)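 Readout: LANCE TR-FRET cAMP, back-calculated from a concurrent standard curve and scaled between forskolin-only and forskolin + 1 μM CP55,940 wells. EC50 and intrinsic activity came from four-parameter fits.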

rat CB2 receptor (rCB2) = target: T1, rat CB2 receptor (rCB2) (Rattus norvegicus, UniProt Q9QZN9); experiment: cell-based; assay type: cell-based; conditions: for +/− RCB2: agonist or inverse agonist at rCB2
T1 sequence (Q9QZN9 1-360): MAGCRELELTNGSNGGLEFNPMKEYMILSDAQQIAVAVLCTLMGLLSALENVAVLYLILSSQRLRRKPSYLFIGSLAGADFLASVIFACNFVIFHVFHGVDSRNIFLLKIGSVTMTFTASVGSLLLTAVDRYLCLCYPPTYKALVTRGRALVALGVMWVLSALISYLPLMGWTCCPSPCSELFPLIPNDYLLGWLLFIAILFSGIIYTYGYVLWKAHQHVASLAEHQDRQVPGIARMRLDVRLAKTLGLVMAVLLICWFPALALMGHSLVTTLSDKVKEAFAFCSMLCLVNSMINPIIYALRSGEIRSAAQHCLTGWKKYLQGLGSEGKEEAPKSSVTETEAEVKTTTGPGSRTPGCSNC
Summary of the method: as §1

[2] = groups >100 nM-10 μM and >10 μM, cAMP, CHO-K1 hCB1, read-out: EC50 HCB1

Sequence of human CB1 receptor (hCB1) (P21554 whole entry): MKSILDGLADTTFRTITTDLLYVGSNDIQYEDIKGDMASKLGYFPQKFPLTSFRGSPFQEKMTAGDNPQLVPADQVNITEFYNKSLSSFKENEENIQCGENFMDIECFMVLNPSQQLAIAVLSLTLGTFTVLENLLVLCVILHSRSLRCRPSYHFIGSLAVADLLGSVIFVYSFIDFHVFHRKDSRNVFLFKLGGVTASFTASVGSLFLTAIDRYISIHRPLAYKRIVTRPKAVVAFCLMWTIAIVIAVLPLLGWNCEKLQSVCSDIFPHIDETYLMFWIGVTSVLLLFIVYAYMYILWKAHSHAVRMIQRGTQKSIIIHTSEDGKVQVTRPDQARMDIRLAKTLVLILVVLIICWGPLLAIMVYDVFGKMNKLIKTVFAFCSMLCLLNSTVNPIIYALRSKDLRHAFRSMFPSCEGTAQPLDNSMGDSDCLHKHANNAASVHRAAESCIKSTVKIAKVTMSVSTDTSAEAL

Row | SMILES | EC50 [1, 2] [nM] | +/− RCB2 (rat CB2 receptor (rCB2)) | EC50 [1] [nM] | +/− HCB1 [1] | EC50 (rat CB2 receptor (rCB2)) [µM]
1 | O=C(Nc1ccccc1)c1nc(-c2ccccc2)n2c1CN(C(=O)C1CC1)CC2 [Compound 129, 7-(cyclopropanecarbonyl)-N,3-diphenyl-5,6,7,8-tetrahydroimidazo[1,5-a]pyrazine-1-carboxamide] | > 10000 | − |  |  | 
2 | CC(C)CN1CCn2c(-c3ccc(Cl)cc3)nc(C(=O)N[C@H](CO)C(C)(C)C)c2C1 [Compound 160, (S)-3-(4-chlorophenyl)-N-(1-hydroxy-3,3-dimethylbutan-2-yl)-7-isobutyl-5,6,7,8-tetrahydroimidazo[1,5-a]pyrazine-1-carboxamide] |  | − | > 10000 |  | 
3 | CNC(=O)[C@@H](NC(=O)c1nc(C2=CCC3(CC2)OCCO3)n2c1CN(C)CCC2)C(C)(C)C [Compound 448, (S)-N-(3,3-dimethyl-1-(methylamino)-1-oxobutan-2-yl)-8-methyl-3-(1,4-dioxaspiro[4.5]dec-7-en-8-yl)-6,7,8,9-tetrahydro-5H-imidazo[1,5-a][1,4]diazepine-1-carboxamide] |  | + |  | + | 
4 | CC(C)C[C@H](NC(=O)c1nc(-c2cc(F)c(F)cc2F)n2c1CN(C)CCC2)C(N)=O [Compound 572, (S)-N-(1-amino-4-methyl-1-oxopentan-2-yl)-8-methyl-3-(2,4,5-trifluorophenyl)-6,7,8,9-tetrahydro-5H-imidazo[1,5-a][1,4]diazepine-1-carboxamide] |  | + |  | + | 
5 | C[C@@H](NC(=O)c1nc(-c2ccccc2)n2c1CNCC2)C1CCCCC1 [Compound 45, (R)-N-(1-cyclohexylethyl)-3-phenyl-5,6,7,8-tetrahydroimidazo[1,5-a]pyrazine-1-carboxamide] | > 10000 | − |  |  | 
6 | CNC(=O)[C@@H](NC(=O)c1nc(-c2ccccc2)n2c1CN(Cc1cccn1C)CC2)C(C)(C)C [Compound 71, (S)-N-(3,3-dimethyl-1-(methylamino)-1-oxobutan-2-yl)-7-((1-methyl-1H-pyrrol-2-yl)methyl)-3-phenyl-5,6,7,8-tetrahydroimidazo[1,5-a]pyrazine-1-carboxamide] |  | − | > 10000 |  | 
7 | CN1CCn2c(-c3ccccc3)nc(C(=O)N[C@H](C(N)=O)C(C)(C)C)c2C1 [Compound 285, (S)-N-(1-amino-3,3-dimethyl-1-oxobutan-2-yl)-7-methyl-3-phenyl-5,6,7,8-tetrahydroimidazo[1,5-a]pyrazine-1-carboxamide] |  |  | > 10000 |  | > 10
8 | CNC(=O)[C@@H](NC(=O)c1nc(-c2ccoc2)n2c1CNCC2)C(C)(C)C [Compound 12, (S)-N-(3,3-dimethyl-1-(methylamino)-1-oxobutan-2-yl)-3-(furan-3-yl)-5,6,7,8-tetrahydroimidazo[1,5-a]pyrazine-1-carboxamide] |  | − | > 10000 |  | 
9 | CNC(=O)[C@@H](NC(=O)c1nc(-c2cccc(C(=O)N3CCOCC3)c2)n2c1CN(C)CCC2)C(C)(C)C [Compound 386, (S)-N-(3,3-dimethyl-1-(methylamino)-1-oxobutan-2-yl)-8-methyl-3-(3-(morpholine-4-carbonyl)phenyl)-6,7,8,9-tetrahydro-5H-imidazo[1,5-a][1,4]diazepine-1-carboxamide] |  |  | > 10000 |  | > 10
10 | CNC(=O)[C@@H](NC(=O)c1nc(-c2cccc(OC(F)(F)F)c2)n2c1CN(C)CCC2)C(C)(C)C [Compound 338, (S)-N-(3,3-dimethyl-1-(methylamino)-1-oxobutan-2-yl)-8-methyl-3-(3-(trifluoromethoxy)phenyl)-6,7,8,9-tetrahydro-5H-imidazo[1,5-a][1,4]diazepine-1-carboxamide] |  |  | > 10000 |  | > 10
11 | CCN1CCCn2c(-c3ccccc3)nc(C(=O)N[C@H](c3nc(C)no3)C(C)(C)C)c2C1 [Compound 524, (S)-N-(2,2-dimethyl-1-(3-methyl-1,2,4-oxadiazol-5-yl)propyl)-8-ethyl-3-phenyl-6,7,8,9-tetrahydro-5H-imidazo[1,5-a][1,4]diazepine-1-carboxamide] |  | − | > 10000 |  | 
12 | CNC(=O)[C@@H](NC(=O)c1nc(-c2ccccc2)n2c1CN(C(=O)OC(C)(C)C)CC2)C(C)(C)C [Compound 1, (S)-tert-butyl 1-(3,3-dimethyl-1-(methylamino)-1-oxobutan-2-ylcarbamoyl)-3-phenyl-5,6-dihydroimidazo[1,5-a]pyrazine-7(8H)-carboxylate] |  | − | > 10000 |  | 
13 | Cc1ccc(-c2nc(C(=O)N[C@H](c3nc(C)no3)C(C)(C)C)c3n2CCCN(C(C)C)C3)c(F)c1 [Compound 523, (S)-N-(2,2-dimethyl-1-(3-methyl-1,2,4-oxadiazol-5-yl)propyl)-3-(2-fluoro-4-methylphenyl)-8-isopropyl-6,7,8,9-tetrahydro-5H-imidazo[1,5-a][1,4]diazepine-1-carboxamide] |  | − | > 10000 |  | 
14 | COC(=O)N1CCn2c(-c3ccccc3)nc(C(=O)NCC3CCOCC3)c2C1 [Compound 186, methyl 3-phenyl-1-((tetrahydro-2H-pyran-4-yl)methylcarbamoyl)-5,6-dihydroimidazo[1,5-a]pyrazine-7(8H)-carboxylate] |  | − | > 10000 |  | 
15 | CCCC(CO)NC(=O)c1nc(-c2ccccc2)n2c1CN(C)CC2 (centres unmarked) [Compound 233, N-(1-hydroxypentan-2-yl)-7-methyl-3-phenyl-5,6,7,8-tetrahydroimidazo[1,5-a]pyrazine-1-carboxamide] |  |  | > 10000 |  | > 10
16 | CC(=O)N1CCn2c(-c3ccccc3)nc(C(=O)NCC3CCOCC3)c2C1 [Compound 176, 7-acetyl-3-phenyl-N-((tetrahydro-2H-pyran-4-yl)methyl)-5,6,7,8-tetrahydroimidazo[1,5-a]pyrazine-1-carboxamide] |  |  | > 10000 |  | > 10
17 | CNC(=O)[C@@H](NC(=O)c1nc(-c2ccc(Cl)cc2F)n2c1CN(c1ncccn1)CCC2)C(C)(C)C [Compound 482, 3-(4-chloro-2-fluorophenyl)-N-(3,3-dimethyl-1-(methylamino)-1-oxobutan-2-yl)-8-(pyrimidin-2-yl)-6,7,8,9-tetrahydro-5H-imidazo[1,5-a][1,4]diazepine-1-carboxamide] |  | + |  | + | 
18 | CNC(=O)[C@@H](NC(=O)c1nc(-c2ccc(C(=O)N(C)C)c(F)c2)n2c1CN(C)CCC2)C(C)(C)C [Compound 426, (S)-N-(3,3-dimethyl-1-(methylamino)-1-oxobutan-2-yl)-3-(4-(dimethylcarbamoyl)-3-fluorophenyl)-8-methyl-6,7,8,9-tetrahydro-5H-imidazo[1,5-a][1,4]diazepine-1-carboxamide] |  |  | > 10000 |  | > 10
19 | CC(C)(C)[C@@H](CO)NC(=O)c1nc(-c2ccccc2)n2c1CN(S(=O)(=O)c1ccccc1)CC2 [Compound 102, (S)-N-(1-hydroxy-3,3-dimethylbutan-2-yl)-3-phenyl-7-(phenylsulfonyl)-5,6,7,8-tetrahydroimidazo[1,5-a]pyrazine-1-carboxamide] |  | − | > 10000 |  | 
20 | C=Cc1nc(C(=O)N[C@H](C(=O)NC)C(C)(C)C)c2n1CCCN(C)C2 [Compound 430, (S)-N-(3,3-dimethyl-1-(methylamino)-1-oxobutan-2-yl)-8-methyl-3-vinyl-6,7,8,9-tetrahydro-5H-imidazo[1,5-a][1,4]diazepine-1-carboxamide] |  | + | > 10000 |  | 
21 | CN1CCn2c(-c3ccc(Cl)cc3F)nc(C(=O)N3CCC(C(=O)N4CCOCC4)CC3)c2C1 [Compound 226, (3-(4-chloro-2-fluorophenyl)-7-methyl-5,6,7,8-tetrahydroimidazo[1,5-a]pyrazin-1-yl)(4-(morpholine-4-carbonyl)piperidin-1-yl)methanone] |  |  | > 10000 |  | > 10
22 | CNC(=O)[C@@H](NC(=O)c1nc(-c2ccc(C(N)=O)c(F)c2)n2c1CN(C)CCC2)C(C)(C)C [Compound 427, (S)-3-(4-carbamoyl-3-fluorophenyl)-N-(3,3-dimethyl-1-(methylamino)-1-oxobutan-2-yl)-8-methyl-6,7,8,9-tetrahydro-5H-imidazo[1,5-a][1,4]diazepine-1-carboxamide] |  |  | > 10000 |  | > 10
23 | CNC(=O)[C@@H](NC(=O)c1nc(CCCN2CCOCC2)n2c1CN(C)CCC2)C(C)(C)C [Compound 500, (S)-N-(3,3-dimethyl-1-(methylamino)-1-oxobutan-2-yl)-8-methyl-3-(3-morpholinopropyl)-6,7,8,9-tetrahydro-5H-imidazo[1,5-a][1,4]diazepine-1-carboxamide] |  |  | > 10000 |  | > 10
24 | C[C@@H](NC(=O)c1nc(-c2ccccc2)n2c1CN(C(=O)C1CC1)CC2)C1CCCCC1 [Compound 132, (R)-N-(1-cyclohexylethyl)-7-(cyclopropanecarbonyl)-3-phenyl-5,6,7,8-tetrahydroimidazo[1,5-a]pyrazine-1-carboxamide] |  | − | > 10000 |  | 
25 | CNC(=O)[C@@H](NC(=O)c1nc(-c2ccccc2)n2c1CN(C(=O)c1ccco1)CC2)C(C)(C)C [Compound 128, (S)-N-(3,3-dimethyl-1-(methylamino)-1-oxobutan-2-yl)-7-(furan-2-carbonyl)-3-phenyl-5,6,7,8-tetrahydroimidazo[1,5-a]pyrazine-1-carboxamide] |  | − | > 10000 |  | 
